Data on 1 molecule can be found in article PMC3836680 (Amino acids, 2011).

In the experiment the target is S. pyogenes P5C reductase (Streptococcus pyogenes, UniProt Q9A1S9). Description: P5C reductase inhibition assay. Type of experiment: biochemical. Conditions: read-out: Enzyme inhibition at 0.2 mM.

As a reminder, the inhibition is how much of the control response was suppressed.

SMILES strings stand for the structures.

For `NC(P(=O)(O)O)P(=O)(O)O` [Compound 01, aminomethylenebisphosphonic acid], the inhibition at 200 µM was 3 ± 2.1%.
